From patent publication US20260167622A1, “PAN-KRAS DEGRADING AGENT, AND PREPARATION METHOD THEREFOR AND USE THEREOF” (LEADINGTAC PHARMACEUTICAL (SHAOXING) CO., LTD., priority 2022, published 2026)

Tests used:
Assay type in all cases: cell-based
[1] = target: T1, KRAS G12V protein in SW900 cells (Homo sapiens, UniProt P01116, G12V); assay: KRAS degradation assay (Western Blot) in SW900 cells; conditions: 24 h
T1 construct: endogenous in cells; host or cells: SW900
Outline: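 After a 24 h treatment spanning 0.03–3000 nM, remaining KRAS protein is quantified by ECL immunoblot against a β-actin internal reference. Degradation is expressed relative to vehicle-treated cells and curve-fitted for DC50 and Dmax.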

[2] = system: KRAS G12D mutant human lung cancer cell A427; assay: 3D cell proliferation inhibition assay, A427; conditions: A-427, 168 h, 3D culture, 7 days, CTG
Text: (§1) Test Example 6: 3D Cell Proliferation Inhibition Assay
(§2) The inhibitory effects of the compounds on 3D cell proliferation were investigated on KRAS G12C mutant human non-small cell lung cancer cell NCI-H358, KRAS G12D mutant human lung cancer cell A427, KRAS G12D mutant human gastric cancer cell AGS, KRAS G12D mutant human metastatic pancreatic cancer cell AsPc-1, KRAS G12V mutant human lung squamous carcinoma cell SW900, KRAS G12V mutant human colorectal cancer cell SW620, KRAS G13D mutant human colorectal cancer epithelial cell DLD-1, and KRAS WT human gastric cancer cell MKN1. The specific procedures were as follows:
(§3) 10 μL of each compound solution diluted in a gradient was added to corresponding wells of a 96-well low-adsorption microplate (PerkinElmer), so that the final concentrations of the test compounds in the reaction system were in a range of 10000-0.026 nM. The final concentration of DMSO was 0.2%. Then 90 µL of cells were correspondingly seeded into each well to achieve a cell density of 5×10^2 cells/well (the cell density of SW900 was 5×10^3 cells/well, and the cell density of MKN1 was 1×10^3 cells/well). In addition to test wells for the test compounds, both a DMSO control well and a medium control well were set, with the DMSO control well containing DMSO and cells and the medium well containing only a medium. After the sample loading, the 96-well low-adsorption microplate was incubated in an incubator at 37° C. with […] for 7 days. After 7 days, the microplate was taken out, and 100 μL of CTG reagent (Promega) was added to each well. The plate was incubated at room temperature for 60 m and read on a microplate reader EnVision by the chemiluminescence program. The inhibition rates of the compounds at each concentration were calculated using the formula for the percentage inhibition of cell proliferation: inhibition rate 00=(mean value of DMSO control group−single concentration reading value of compound)/(mean value of DMSO control group−mean value of medium control group)×100. Then non-linear curve fillings for logarithmic concentration-inhibition rate were performed by GraphPad Prism 8, and the IC50 values of the compounds were obtained (Table 6).

[3] = system: KRAS G12D mutant human gastric cancer cell AGS; assay: 3D cell proliferation inhibition assay, AGS; conditions: 168 h, 3D culture, 7 days, CTG
Text: as §1, §2, §3

[4] = system: KRAS G12D mutant human metastatic pancreatic cancer cell AsPc-1; assay: 3D cell proliferation inhibition assay, AsPc-1; conditions: ASPC1, 168 h, 3D culture, 7 days, CTG
Outline: (§4)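 Cells seeded in low-adsorption plates at 5×10^2 cells/well (MKN1 1×10^3) with compounds at final 10000–0.026 nM, 0.2% DMSO, 3D culture 7 days at 37 °C. Viability by CellTiter-Glo luminescence; inhibition normalised to DMSO and medium-only controls, IC50 from nonlinear log-concentration fit.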

[5] = system: KRAS G12C mutant human non-small cell lung cancer cell NCI-H358; assay: 3D cell proliferation inhibition assay, NCI-H358; conditions: NCI-H358, 168 h, 3D culture, 7 days, CTG
Outline: as §4

[6] = system: KRAS G12V mutant human lung squamous carcinoma cell SW900; assay: 3D cell proliferation inhibition assay, SW900; conditions: SW900, 168 h, 3D culture, 7 days, CTG
Text: as §1, §2, §3

[7] = system: KRAS G13D mutant human colorectal cancer epithelial cell DLD-1; assay: 3D cell proliferation inhibition assay, DLD-1; conditions: DLD-1, 168 h, 3D culture, 7 days, CTG
Outline: as §4

[8] = system: KRAS WT human gastric cancer cell MKN1; assay: 3D cell proliferation inhibition assay, MKN1; conditions: MKN-1, 168 h, 3D culture, 7 days, CTG
Text: as §1, §2, §3

[9] = system: KRAS G12V mutant human colorectal cancer cell SW620; assay: 3D cell proliferation inhibition assay, SW620; conditions: SW-620, 168 h, 3D culture, 7 days, CTG
Outline: as §4

T1 sequence (P01116 1-188 isoform P01116-2 G12V): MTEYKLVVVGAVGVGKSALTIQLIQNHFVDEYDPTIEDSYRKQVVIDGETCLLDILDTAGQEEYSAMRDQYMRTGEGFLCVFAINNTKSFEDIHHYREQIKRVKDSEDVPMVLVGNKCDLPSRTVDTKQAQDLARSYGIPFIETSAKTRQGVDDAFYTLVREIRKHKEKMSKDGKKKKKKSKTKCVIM

Row | SMILES | DC50 [1] | Dmax [1] | IC50 [2] | IC50 [3] | IC50 [4] | IC50 [5] | IC50 [6] | IC50 [7] | IC50 [8] | IC50 [9]
1 | C#Cc1c(F)ccc2cc(O)cc(-c3ncc4c(N5CCC[C@@](C)(O)C5)nc(OCC5(CN6CCN(CCCC7CCN(C(=O)c8ccc(Cl)c(N9CCC(=O)NC9=O)c8)CC7)CC6)CC5)nc4c3F)c12 [Example 4, (R)-1-(2-chloro-5-(4-(3-(4-((1-(((7-(8-ethynyl-7-fluoro-3-hydroxynaphthalen-1-yl)-8-fluoro-4-(3-hydroxy-3-methylpiperidin-1-yl)pyrido[4,3-d]pyrimidin-2-yl)oxy)methyl)cyclopropyl)methyl)piperazin-1-yl)propyl)piperidine-1-carbonyl)phenyl)dihydropyrimidine-2,4(1H,3H)-dione] | ≤ 50 nM | 80 to 100% | 100 to 500 nM | ≤ 50 nM | 50 to 100 nM | ≤ 50 nM | ≤ 50 nM |  | ≤ 50 nM | 
2 | C#Cc1c(F)ccc2cc(O)cc(-c3ncc4c(N5CCC[C@@](C)(O)C5)nc(OCC5(CN6CCN(CC7CCC8(CC7)CCN(C(=O)c7ccc9c(c7)C(=O)N(C7CCC(=O)NC7=O)C9)CC8)CC6)CC5)nc4c3F)c12 (stereo partly drawn) [Example 35, 3-(6-(9-((4-((1-(((7-(8-ethynyl-7-fluoro-3-hydroxynaphthalen-1-yl)-8-fluoro-4-((R)-3-hydroxy-3-methylpiperidin-1-yl)pyrido[4,3-d]pyrimidin-2-yl)oxy)methyl)cyclopropyl)methyl)piperazin-1-yl)methyl)-3-azaspiro[5.5]undecane-3-carbonyl)-1-oxoisoindolin-2-yl)piperidine-2,6-dione] | ≤ 50 nM | 80 to 100% | 500 to 1000 nM | ≤ 50 nM | ≤ 50 nM | ≤ 50 nM | 100 to 500 nM |  | ≤ 50 nM | 
3 | C#Cc1cccc2cc(O)cc(-c3ccc4c(N5CCC[C@@](C)(O)C5)nc(OCC5(CN6CCN(CC7CCC8(CC7)CCN(C(=O)c7ccc(OC)c(N9CCC(=O)NC9=O)c7)CC8)CC6)CC5)nc4c3F)c12 [Example 24, (R)-1-(5-(9-((4-((1-(((7-(8-ethynyl-3-hydroxynaphthalen-1-yl)-8-fluoro-4-(3-hydroxy-3-methylpiperidin-1-yl)quinazolin-2-yl)oxy)methyl)cyclopropyl)methyl)piperazin-1-yl)methyl)-3-azaspiro[5.5]undecane-3-carbonyl)-2-methoxyphenyl)dihydropyrimidine-2,4(1H,3H)-dione] | ≤ 50 nM | 80 to 100% | 100 to 500 nM | 50 to 100 nM | ≤ 50 nM | 100 to 500 nM | ≤ 50 nM |  | ≤ 50 nM | 9.33 nM

Results, then the compound that gave them:

Row | DC50 [1] | Dmax [1] | IC50 [2] | IC50 [3] | IC50 [4] | IC50 [5] | IC50 [6] | IC50 [7] | IC50 [8] | IC50 [9] | SMILES
4 | ≤ 50 nM | 80 to 100% | 100 to 500 nM | ≤ 50 nM | ≤ 50 nM | ≤ 50 nM | ≤ 50 nM | ≤ 50 nM | ≤ 50 nM |  | CCc1cccc2cc(O)cc(-c3ncc4c(N5CCC[C@@](C)(O)C5)nc(OCC5(CN6CCN(CC7CCC8(CC7)CCN(C(=O)c7ccc(F)c(N9CCC(=O)NC9=O)c7)CC8)CC6)CC5)nc4c3F)c12 [Example 28, (R)-1-(5-(9-((4-((1-(((7-(8-ethyl-3-hydroxynaphthalen-1-yl)-8-fluoro-4-(3-hydroxy-3-methylpiperidin-1-yl)pyrido[4,3-d]pyrimidin-2-yl)oxy)methyl)cyclopropyl)methyl)piperazin-1-yl)methyl)-3-azaspiro[5.5]undecane-3-carbonyl)-2-fluorophenyl)dihydropyrimidine-2,4(1H,3H)-dione]
5 | ≤ 50 nM | 80 to 100% | 50 to 100 nM | ≤ 50 nM | ≤ 50 nM | ≤ 50 nM | ≤ 50 nM | ≤ 50 nM | ≤ 50 nM |  | C#Cc1c(F)ccc2cc(O)cc(-c3ncc4c(N5CCC[C@@](C)(O)C5)nc(OCC5(CN6CCC(CCOCC7CCN(C(=O)c8ccc(Cl)c(N9CCC(=O)NC9=O)c8)CC7)CC6)CC5)nc4c3F)c12 [Example 8, (R)-1-(2-chloro-5-(4-((2-(1-((1-(((7-(8-ethynyl-7-fluoro-3-hydroxynaphthalen-1-yl)-8-fluoro-4-(3-hydroxy-3-methylpiperidin-1-yl)pyrido[4,3-d]pyrimidin-2-yl)oxy)methyl)cyclopropyl)methyl)piperidin-4-yl)ethoxy)methyl)piperidine-1-carbonyl)phenyl)dihydropyrimidine-2,4(1H,3H)-dione]
6 | ≤ 50 nM | 80 to 100% | 50 to 100 nM | ≤ 50 nM | ≤ 50 nM | 100 to 500 nM | ≤ 50 nM |  | ≤ 50 nM | 5.54 nM | C#Cc1c(F)ccc2cc(O)cc(-c3ccc4c(N5CCC[C@@](C)(O)C5)nc(OCC5(CN6CCN(CC7CCC8(CC7)CCN(C(=O)c7ccc(OC)c(N9CCC(=O)NC9=O)c7)CC8)CC6)CC5)nc4c3F)c12 [Example 21, (R)-1-(5-(9-((4-((1-(((7-(8-ethynyl-7-fluoro-3-hydroxynaphthalen-1-yl)-8-fluoro-4-(3-hydroxy-3-methylpiperidin-1-yl)quinazolin-2-yl)oxy)methyl)cyclopropyl)methyl)piperazin-1-yl)methyl)-3-azaspiro[5.5]undecane-3-carbonyl)-2-methoxyphenyl)dihydropyrimidine-2,4(1H,3H)-dione]
7 | ≤ 50 nM | 80 to 100% | 100 to 500 nM | ≤ 50 nM | ≤ 50 nM | 50 to 100 nM | ≤ 50 nM |  | ≤ 50 nM |  | C#Cc1c(F)ccc2cc(O)cc(-c3ccc4c(N5CCC[C@@](C)(O)C5)nc(OCC5(CN6CCC(CCOCC7CCN(C(=O)c8ccc(C)c(N9CCC(=O)NC9=O)c8)CC7)CC6)CC5)nc4c3F)c12 [Example 34, (R)-1-(5-(4-((2-(1-((1-(((7-(8-ethynyl-7-fluoro-3-hydroxynaphthalen-1-yl)-8-fluoro-4-(3-hydroxy-3-methylpiperidin-1-yl)quinazolin-2-yl)oxy)methyl)cyclopropyl)methyl)piperidin-4-yl)ethoxy)methyl)piperidine-1-carbonyl)-2-methylphenyl)dihydropyrimidine-2,4(1H,3H)-dione]
8 | ≤ 50 nM | 80 to 100% | 100 to 500 nM | ≤ 50 nM | 100 to 500 nM | ≤ 50 nM | ≤ 50 nM |  | ≤ 50 nM | 15.3 nM | CCc1cccc2cc(O)cc(-c3ccc4c(N5CCC[C@@](C)(O)C5)nc(OCC5(CN6CCN(CC7CCC8(CC7)CCN(C(=O)c7ccc(Cl)c(N9CCC(=O)NC9=O)c7)CC8)CC6)CC5)nc4c3F)c12 [Example 12, (R)-1-(2-chloro-5-(9-((4-((1-(((7-(8-ethyl-3-hydroxynaphthalen-1-yl)-8-fluoro-4-(3-hydroxy-3-methylpiperidin-1-yl)quinazolin-2-yl)oxy)methyl)cyclopropyl)methyl)piperazin-1-yl)methyl)-3-azaspiro[5.5]undecane-3-carbonyl)phenyl)dihydropyrimidine-2,4(1H,3H)-dione]
